Results on 4 molecules are retold here after PMC11727121, “Intrinsic PD‐L1 Degradation Induced by a Novel Self‐Assembling Hexapeptide for Enhanced Cancer Immunotherapy” (Advanced Science, 2024).

The test system of series [1] is 4T1 cells. The experiment in a line: MTT cytotoxicity assay, 4T1 cells. Conditions: 24 h. Type of series: cell-based, mouse. As for the experimental part: (§1) In Vitro Cell Cytotoxicity and Cell Apoptosis Assay
(§2) The cytotoxicity of KFM and KFMo were assessed as follows. Briefly, 4T1, MC38 and HUVEC cells were seeded on 96-well plate (5000 cells per well) overnight.
(§3) The cells were incubated with 100 µL fresh DMEM containing with various concentration of for 24 h, respectively. Moreover, the 4T1 and MC38 tumor cells co- […]
(§4) cells viability was evaluated using the MTT assay.
(§5) Subsequently, the cells at a density of 1 × 104 were cultivated into 96-well plate and then cultured with or without H2O2 (5 µM or 100 µM) for 24 h. The cells viability was evaluated using the MTT assay. […]

For series [2], the system named is HUVEC cells. Kind of series: MTT cytotoxicity assay, HUVEC cells. As to conditions: 24 h. Type of series: cell-based, Human. As for the experimental part:
as §1, §2, §3, §4, §5
(In general: Formazan colour is commonly taken as a measure of viable cells.)

In series [3] the test system is MC38 cells. The experiment in a line: MTT cytotoxicity assay, MC38 cells. Format: cell-based, mouse. Conditions: 24 h. As for the experimental part:
as §1, §2, §3, §4, §5

The subject of series [4] is MC38 tumor. The experiment in a line: In vivo antitumor study in MC38 tumor-bearing mice. Conditions: MC38 model, peritumoral, MTX 1.5 mg/kg, MET 69.5 mg/kg equivalents, day 0 and 3, n = 5.
The subject of series [5] is 4T1 cells. Kind of series: Cell apoptosis assay by flow cytometry (Annexin V / PI). Type of series: cell-based, mouse. As to conditions: 24 h, 5 µM MTX or equivalent, absence of H2O2. As for the experimental part:
In Vitro Cell Cytotoxicity and Cell Apoptosis Assay […]
plates at a density of 2 × 10^5 cells/well.
Following incubation, all cells were harvested and
stained with Annexin V and propidium iodide (PI) according to the manufacturer's
protocol. Apoptosis was immediately analyzed using flow cytometry.

Series [6] relates to 4T1 cells. Kind of series: In vitro immunogenic cell death assay (CRT, HMGB1). Format: cell-based, mouse. As to conditions: 12 h, fluorescence staining. As for the experimental part:
(§6) In vitro Immunogenic Cell Death Assay […]
(§7) presence of DAMPs within indicated treatments were examined by calreticulin (CRT) and high mobility group box 1 protein (HMGB1) expression level. Firstly, 5 × 104 […]
(§8) And then, fixed with 4% formaldehyde for 30 min at room temperature, and washed twice with PBS. A blocking solution of 10% goat serum was added to the wells and incubated for 50 min to minimize nonspecific antibody adsorption. The cells were treated with primary antibodies overnight at 4 ℃, subsequently, stained with FITC -labeled secondary antibodies for 2 h, followed by mounting solution with DAPI, images captured by fluorescence microscopy (Leica DMI3000B). The fluorescence intensity was analyzed using Image J.
(§9) Western Blotting Analysis
(§10) Cellular proteins were extracted with the lysis buffer containing 8 M urea, 0.05 M Tris-HCl (pH 7.5), 1% β-Mercaptoethanol, 1% protease inhibitor, and 1% phosphatase inhibitor, while tumor protein was extracted with the medium RIPA lysis buffer containing 1% protease inhibitor and 1% phosphatase inhibitors by 1-minute ultrasonication, then kept on ice for 30 minutes and microcentrifugated at 12,000 g for 15 minutes at 4 ℃ to remove debris. Immunoblotting was performed using 30 µg and 50 μg of protein lysates from cells and tumors, respectively . […]

In series [7] the test system is PD-L1. Kind of series: Western blot analysis of PD-L1 expression in MC38 cells. Type of series: cell-based, mouse. As to conditions: compared to PBS control. As for the experimental part: as §6, §7, §8, §9, §10
In series [8] the test system is PD-L1. Kind of series: Western blot analysis of PD-L1 expression in 4T1 cells. Type of series: cell-based, mouse. As for the experimental part: as §6, §7, §8, §9, §10

Square brackets hold non-standard residues; d marks the D form. Ends that are not written are not given here. Peptide text beside a SMILES is read from it. Met(O) = CS(=O)CC[C@H](N)C(=O)O

Consider “KFMFMK-NH2 [KFM, Lys‐Phe‐Met‐Phe‐Met‐Lys]”, for which the “cytotoxicity of peptide (MTT)” value in series [1], in series [2] and in series [3] was “negligible cytotoxicity” each time.
With `C[S+]([O-])CC[C@H](NC(=O)[C@H](Cc1ccccc1)NC(=O)[C@H](CC[S+](C)[O-])NC(=O)[C@H](Cc1ccccc1)NC(=O)[C@@H](N)CCCCN)C(=O)N[C@@H](CCCCN)C(N)=O` (stereo partly shown) [KFM°] (H-KF[Met(O)]F[Met(O)]K-NH2), the “cytotoxicity of peptide (MTT)” value in series [1], in series [2] and in series [3] was “negligible cytotoxicity” in each case.
On to `O=C1c2c(O)ccc(O)c2C(=O)c2c(NCCNCCO)ccc(NCCNCCO)c21` [MTX, mitoxantrone], for which the tumor growth result in series [4] is recorded as “partially slowed tumor growth”. Besides, in series [5], the “percentage of apoptotic cells” value was 61.3%. Moreover, the “cytotoxicity of MTX formulations (MTT)” value in series [1] (without H2O2) and in series [3] (without H2O2) was “dose‐dependent cytotoxicity” each time. In addition, the “CRT expression compared to PBS control, in words” value in series [6] is on record as “marked increase”.
On to `CN(C)C(=N)N=C(N)N` [MET, metformin], for which the “PD-L1 expression (Western blot), in words” value in series [7] and in series [8] was “reduced” each time.
